Consider two compounds from ChEMBL document CHEMBL1641403, “Scytonemides A and B, cyclic peptides with 20S proteasome inhibitory activity from the cultured cyanobacterium Scytonema hofmanii” (J Nat Prod, 2010).

Some results are limits rather than exact numbers.

Data set [1] has as its system HT-29. Description: Inhibition of 20S proteasome in human HT-29 cells at 6.7 uM by luminescence-based assay. Format: cell-based.
The subject of data set [2] is HT-29. Description: Inhibition of 20S proteasome in human HT-29 cells. Format: cell-based.
Data set [3] is described as follows: Chemical stability of the compound. Format: physicochemical.
Data set [4] deals with HT-29. Description: Cytotoxicity against human HT-29 cells. Format: cell-based.
A short description of data set [5]: Metabolic stability of the compound in human HT-29 cells. Type of data set: ADME, cell-based. The note with it: read-out: Stability (converted).
Data set [6] can be described thus: Inhibition of human 20S proteasome.

As a reminder, the inhibition is the percentage by which the read-out fell short of the control. Read a high inhibition as a response far below the control. The compound `CC[C@H](C)[C@H]1NC(=O)[C@@H](CCC(N)=O)NC(=O)CNC(=O)[C@H](Cc2ccc(O)cc2)/N=C/[C@H](CC(C)C)NC(=O)[C@H](C(C)C)NC(=O)[C@H](CO)NC1=O` [SCYTONEMIDES A] came in with an inhibition in data set [1] of 80%. In data set [2], this compound returned an ED50 of over 20 µg/mL. Besides, the Stability in data set [3] came out at 3 days. In addition, in data set [4], the Activity entry was “Non-toxic”. In data set [5], the half-life was 2 h.

In general, IC50 refers to the point on the concentration scale where inhibition reaches its midpoint. A low value points to greater potency. Compound `CCCCC[C@H]1CC(=O)N[C@@H](CO)C(=O)N[C@@H](Cc2ccccc2)C(=O)N[C@@H](Cc2ccc(O)cc2)C(=O)N[C@H](CCCNC(N)=O)C(=O)N[C@@H](CC(=O)O)C(=O)O1` [scytonemides B] came in with a 50% inhibitory concentration (IC50) in data set [6] of over 50 µM.
